In ChEMBL document CHEMBL1201862, “PubChem BioAssay data set” (2004):
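All cell lines were grown in 96-well plates and treated with compound for 48 hours. GI50: concentration for 50% inhibition of growth.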 Activity calls are given as the source filed them. Rule as the data show it: active = GI50 up to about 1.1 µM and inactive = higher.

What was measured:
Experiment in all cases: inhibition of tumour cell growth, NCI panel, 48 h
SN12C = tested on: SN12C
RPMI-8226 = tested on: RPMI-8226
COLO 205 = tested on: COLO 205
KM12 = tested on: KM12
MOLT-4 = tested on: MOLT-4
BT-549 = tested on: BT-549
PC-3 = tested on: PC-3
MDA-MB-435 = tested on: MDA-MB-435
LOX IMVI = tested on: LOX IMVI
Malme-3M = tested on: Malme-3M
SF-295 = tested on: SF-295
OVCAR-3 = tested on: OVCAR-3
NCI-H226 = tested on: NCI-H226
M14 = tested on: M14
ACHN = tested on: ACHN
Hs-578T = tested on: Hs-578T
SK-OV-3 = tested on: SK-OV-3
U-251 = tested on: U-251
HCT-116 = tested on: HCT-116
RXF 393 = tested on: RXF 393
SK-MEL-5 = tested on: SK-MEL-5
MDA-MB-231 = tested on: MDA-MB-231
HOP-92 = tested on: HOP-92
SW-620 = tested on: SW-620
SR = tested on: SR
SK-MEL-2 = tested on: SK-MEL-2
HT-29 = tested on: HT-29
K562 = tested on: K562
TK-10 = tested on: TK-10
MDA-N = tested on: MDA-N
SK-MEL-28 = tested on: SK-MEL-28
HL-60 = tested on: HL-60
SNB-19 = tested on: SNB-19
UACC-62 = tested on: UACC-62
OVCAR-5 = tested on: OVCAR-5
NCI-H522 = tested on: NCI-H522
MCF7 = tested on: MCF7
A498 = tested on: A498
UACC-257 = tested on: UACC-257
OVCAR-8 = tested on: OVCAR-8
SF-268 = tested on: SF-268
DU-145 = tested on: DU-145
SF-539 = tested on: SF-539
UO-31 = tested on: UO-31
786-0 = tested on: 786-0
IGROV-1 = tested on: IGROV-1
EKVX = tested on: EKVX
A549 = tested on: A549
NCI-H460 = tested on: NCI-H460
NCI/ADR-RES = tested on: NCI/ADR-RES
CCRF-CEM = tested on: CCRF-CEM
SNB-75 = tested on: SNB-75
T47D = tested on: T47D
NCI-H23 = tested on: NCI-H23
OVCAR-4 = tested on: OVCAR-4
HOP-62 = tested on: HOP-62
CAKI-1 = tested on: CAKI-1
HCT-15 = tested on: HCT-15
HCC 2998 = tested on: HCC 2998

Measured: GI50

COc1ccc2c(Cc3c4ccccc4cc4ccccc34)cncc2c1O
inactive: SN12C 5.01 µM | RPMI-8226 1.85 µM | COLO 205 17.7 µM | KM12 1.93 µM | MOLT-4 2.68 µM | BT-549 5.69 µM | PC-3 5.14 µM | Malme-3M 5.86 µM | SF-295 1.55 µM | OVCAR-3 1.98 µM | NCI-H226 3.27 µM | M14 2.26 µM | ACHN 2.14 µM | Hs-578T 1.58 µM | SK-OV-3 2.96 µM | U-251 1.45 µM | HCT-116 1.48 µM | RXF 393 3.4 µM | MDA-MB-231 2.51 µM | HOP-92 1.81 µM | SK-MEL-2 2.87 µM | HT-29 14.2 µM | TK-10 3.94 µM | SK-MEL-28 14.1 µM | HL-60 1.87 µM | SNB-19 2.08 µM | UACC-62 2.9 µM | OVCAR-5 13.5 µM | A498 3.99 µM | UACC-257 2.32 µM | SF-268 3.79 µM | DU-145 2.77 µM | UO-31 4.4 µM | 786-0 4.21 µM | IGROV-1 2.92 µM | EKVX 8.22 µM | A549 3.44 µM | NCI-H460 1.45 µM | SNB-75 3.9 µM | T47D 17.2 µM | NCI-H23 2.37 µM | OVCAR-4 5.37 µM | HOP-62 4.11 µM | CAKI-1 4.15 µM
active: MDA-MB-435 0.239 µM | LOX IMVI 0.394 µM | SK-MEL-5 0.658 µM | SW-620 0.857 µM | SR 0.21 µM | K562 0.655 µM | MDA-N 0.404 µM | NCI-H522 0.698 µM | MCF7 0.638 µM | OVCAR-8 1.1 µM | SF-539 0.245 µM | NCI/ADR-RES 0.67 µM | CCRF-CEM 0.36 µM
1.15 µM: HCT-15

N#CCCN(CCCCN(CCC#N)C(=O)Nc1ccccc1)C(=O)Nc1ccccc1
> 100 µM: HCT-15
inactive: SN12C > 100 µM | RPMI-8226 > 100 µM | COLO 205 > 100 µM | KM12 > 100 µM | MOLT-4 > 100 µM | BT-549 > 100 µM | PC-3 > 100 µM | MDA-MB-435 > 100 µM | LOX IMVI > 100 µM | Malme-3M > 100 µM | SF-295 > 100 µM | OVCAR-3 > 100 µM | NCI-H226 > 100 µM | M14 > 100 µM | ACHN > 100 µM | Hs-578T > 100 µM | SK-OV-3 > 100 µM | U-251 > 100 µM | HCT-116 > 100 µM | RXF 393 24.4 µM | SK-MEL-5 > 100 µM | MDA-MB-231 > 100 µM | SW-620 > 100 µM | SR > 100 µM | SK-MEL-2 > 100 µM | HCC 2998 > 100 µM | HT-29 > 100 µM | K562 > 100 µM | MDA-N > 100 µM | SK-MEL-28 > 100 µM | HL-60 > 100 µM | SNB-19 > 100 µM | UACC-62 > 100 µM | OVCAR-5 > 100 µM | NCI-H522 > 100 µM | MCF7 > 100 µM | A498 > 100 µM | OVCAR-8 > 100 µM | SF-268 > 100 µM | DU-145 > 100 µM | UO-31 > 100 µM | 786-0 > 100 µM | IGROV-1 > 100 µM | EKVX > 100 µM | A549 > 100 µM | NCI-H460 > 100 µM | NCI/ADR-RES > 100 µM | SNB-75 15.5 µM | T47D > 100 µM | NCI-H23 > 100 µM | OVCAR-4 > 100 µM | HOP-62 > 100 µM | CAKI-1 > 100 µM
